US20100120690A1, “Polypeptides Having Antimicrobial Activity and Polynucleotides Encoding Same” (Novozymes Adenium Biotech A/S, priority 2005, published 2010)

Key:
[1] = test system: Staphylococcus carnosus ATCC51365; experiment: Yeast screening assay: radial diffusion assay of yeast supernatants; assay type: cell-based; design: key: An activity of 3 is better than Plectasin; An activity of 2 corresponds to the activity of Plectasin; 1 is worse than Plectasin; conditions: yeast supernatant, clearing zone in radial diffusion assay
Procedure, shortened: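 Supernatants from S. cerevisiae expressing plectasin variants, grown 3 days at 30 °C in galactose medium, were applied to agarose containing 5×10^5 cfu/mL S. carnosus. Plates were incubated 3 h at 37 °C, overlaid, left overnight and MTT-stained. Clearing zones were scored as 2 = plectasin-like, 3 = better, 1 = worse.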

B. subtilis = experiment: Minimal Inhibitory Concentration, NCCLS guidelines (Example 4); assay type: cell-based, Bacillus subtilis; conditions: purified peptide
Description: (§1) The Minimal Inhibitory Concentration (MIC, micrograms/mL) was determined to test for their antimicrobial activity following the NCCLS guidelines (Clinical and Laboratory Standards Institute; formerly known as National Committee for Clinical and Laboratory Standards).

S. aureus = experiment: as above; assay type: cell-based, Staphylococcus aureus; conditions: purified peptide
Description: as §1

[2] = test system: Staphylococcus aureus, ATCC 29737; experiment: MIC, NCCLS/CLSI guidelines (Example 5), strain C; assay type: cell-based; conditions: average of two independent experiments
Procedure, shortened: (§2)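 MICs of purified plectasin peptides are measured according to NCCLS/CLSI guidance. Each value averages duplicate independent experiments and is given as a category relative to wild-type: 0 above 100%, 1 80-100%, 2 50-80%, 3 below 50%.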

[3] = test system: Staphylococcus aureus, MRSA ST5 (2001); experiment: MIC, NCCLS/CLSI guidelines (Example 5), strain D; assay type: cell-based; conditions: average of two independent experiments
Procedure, shortened: as §2

[4] = test system: Staphylococcus aureus, ATCC 29213; experiment: MIC, NCCLS/CLSI guidelines (Example 5), strain A; assay type: cell-based; conditions: average of two independent experiments
Procedure, shortened: as §2

[5] = test system: Staphylococcus aureus, MRSA ST80 (2003); experiment: MIC, NCCLS/CLSI guidelines (Example 5), strain E; assay type: cell-based; conditions: average of two independent experiments
Procedure, shortened: as §2

[6] = test system: Staphylococcus aureus, ATCC 25923; experiment: MIC, NCCLS/CLSI guidelines (Example 5), strain B; assay type: cell-based; conditions: average of two independent experiments
Procedure, shortened: as §2

In the case of “GFGCNGPWDEDDMQCHNHCKSIKGYKGGYCAKGGFVCKCY (listed as Pseudoplectania nigrella) [wildtype, wildtype plectasin, parent antimicrobial polypeptide, reference compound]”, the “Activity (antimicrobial activity relative to the activity of plectasin)” value [1] is reported as 2, the “MIC against B. subtilis” value (B. subtilis) is reported as 1 micrograms/mL and the “MIC against S. aureus” value (S. aureus) is reported as 8 micrograms/mL. The “MIC, strain C” value [2] was “(4 μg/mL)”, the “Relative MIC, strain C” value ([2]; relative to wildtype Plectasin) was 1 (80-100% of Plectasin wildtype MIC) and the “MIC, strain D” value [3] was “(15 μg/mL)”. The “Relative MIC, strain D” value ([3]; relative to wildtype Plectasin) was 1 (80-100% of Plectasin wildtype MIC), the “MIC, strain A” value [4] was “(8 μg/mL)” and the “Relative MIC, strain A” value ([4]; relative to wildtype Plectasin) was 1 (80-100% of Plectasin wildtype MIC). The “MIC, strain E” value [5] was “(22 μg/mL)”, the “Relative MIC, strain E” value ([5]; relative to wildtype Plectasin) was 1 (80-100% of Plectasin wildtype MIC) and the “MIC, strain B” value [6] was “(22 μg/mL)”. The “Relative MIC, strain B” value ([6]; relative to wildtype Plectasin) was 1 (80-100% of Plectasin wildtype MIC).
